{"source": "ChEMBL document CHEMBL3994601", "about": "“Polyacetylenic Oleanane-Type Triterpene Saponins from the Roots of Panax japonicus” (J Nat Prod, 2016)", "key": {"[1]": {"test_system": "PC-12", "assay": "Neuroprotective activity against hydrogen peroxide-induced cell damage in rat PC12 cells assessed as increase in cell viability at 3.125 to 50 uM preincubated with compound followed by H2O2 challenge by MTT assay", "assay_type": "functional, cell-based"}, "[2]": {"test_system": "VSMC", "assay": "Antiproliferative activity against angiotensin 2-stimulated Wistar rat VSMC after 48 hrs by MTT method", "assay_type": "functional, cell-based"}}, "note": "Calls of active or inactive are those of the source. The rule behind the calls is not given here."}
{"smiles": "CCCCOC(=O)[C@H]1O[C@@H](O[C@H]2CC[C@]3(C)[C@H]4CC=C5[C@@H]6CC(C)(C)CC[C@]6(C(=O)O)CC[C@@]5(C)[C@]4(C)CC[C@H]3C2(C)C)[C@H](O[C@@H]2O[C@H](CO)[C@@H](O)[C@H](O)[C@H]2O)[C@@H](O)[C@@H]1O", "values": [{"measurement": "Activity", "setting": "[1]", "value": "Active"}]}
{"smiles": "CCCCOC(=O)[C@H]1O[C@@H](O[C@H]2CC[C@]3(C)[C@H]4CC=C5[C@@H]6CC(C)(C)CC[C@]6(C(=O)O[C@@H]6O[C@H](CO)[C@@H](O)[C@H](O)[C@H]6O)CC[C@@]5(C)[C@]4(C)CC[C@H]3C2(C)C)[C@H](O)[C@@H](O)[C@@H]1O[C@@H]1O[C@@H](CO)[C@H](O)[C@H]1O", "values": [{"measurement": "Activity", "setting": "[1]", "value": "Active"}]}
{"smiles": "COC(=O)[C@H]1O[C@@H](O[C@H]2CC[C@]3(C)[C@H]4CC=C5[C@@H]6CC(C)(C)CC[C@]6(C(=O)O[C@@H]6O[C@H](CO)[C@@H](O)[C@H](O)[C@H]6O)CC[C@@]5(C)[C@]4(C)CC[C@H]3C2(C)C)[C@H](O)[C@@H](O)[C@@H]1O", "values": [{"measurement": "growth inhibition (GI)", "setting": "[2]", "value": "Dose-dependent effect"}]}
{"smiles": "C=C[C@@H](O)C#CC#CC[C@@H](O)[C@@H](CCCCCCC)OC(=O)[C@H]1O[C@@H](O[C@H]2CC[C@]3(C)[C@H]4CC=C5[C@@H]6CC(C)(C)CC[C@]6(C(=O)O)CC[C@@]5(C)[C@]4(C)CC[C@H]3C2(C)C)[C@H](O[C@@H]2O[C@H](CO)[C@@H](O)[C@H](O)[C@H]2O)[C@@H](O)[C@@H]1O", "values": [{"measurement": "Activity", "setting": "[1]", "value": "Active"}]}
